Measured values: PMC7594054, “Design, Synthesis and In Vitro Experimental Validation of Novel TRPV4 Antagonists Inspired by Labdane Diterpenes” (Marine Drugs, 2020)

Key:
TRPV4 = conditions: cited from earlier work
hTRPV1 = biological target: T1, hTRPV1 (Homo sapiens, UniProt Q8NER1); experiment: TRPV1 calcium influx assay (Fluo-4) in HEK-293 cells overexpressing human recombinant TRPV1; type: cell-based; conditions: for IC50: read-out: IC50 inh TRPV1
T1 construct: expressed in transfected cells; host or cells: HEK-293
T1 sequence (Q8NER1 whole entry): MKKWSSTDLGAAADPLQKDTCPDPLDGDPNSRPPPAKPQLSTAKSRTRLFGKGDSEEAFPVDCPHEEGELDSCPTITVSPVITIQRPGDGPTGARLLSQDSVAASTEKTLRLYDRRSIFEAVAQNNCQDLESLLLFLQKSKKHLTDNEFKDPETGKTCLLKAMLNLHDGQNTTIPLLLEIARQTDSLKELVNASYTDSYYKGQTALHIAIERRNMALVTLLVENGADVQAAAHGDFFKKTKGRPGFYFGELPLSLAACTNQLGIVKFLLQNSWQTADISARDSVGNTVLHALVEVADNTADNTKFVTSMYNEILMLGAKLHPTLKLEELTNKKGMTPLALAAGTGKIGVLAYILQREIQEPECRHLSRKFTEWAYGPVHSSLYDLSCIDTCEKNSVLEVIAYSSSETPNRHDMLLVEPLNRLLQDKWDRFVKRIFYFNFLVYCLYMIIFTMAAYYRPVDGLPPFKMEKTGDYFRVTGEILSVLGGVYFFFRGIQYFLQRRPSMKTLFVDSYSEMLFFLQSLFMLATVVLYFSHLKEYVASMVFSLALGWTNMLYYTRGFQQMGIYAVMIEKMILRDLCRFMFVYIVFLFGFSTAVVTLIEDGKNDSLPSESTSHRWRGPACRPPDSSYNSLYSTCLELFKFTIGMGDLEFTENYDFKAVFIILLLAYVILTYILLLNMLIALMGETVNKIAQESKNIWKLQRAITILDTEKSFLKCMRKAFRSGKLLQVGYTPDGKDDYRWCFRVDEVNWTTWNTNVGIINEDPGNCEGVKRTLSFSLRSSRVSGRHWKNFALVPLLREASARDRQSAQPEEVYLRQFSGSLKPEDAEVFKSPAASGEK

A549 cells = experiment: MTT cytotoxicity assay, A549 cells; type: cell-based, human; conditions: A549 cells, 1, 5 and 25 μM, 24 h
Description: (§1) HeLa and A549 cells were seeded at 2 × 10^3 cells/cm^2 density in 24-well plastic plates. One day after plating, compounds 6 and 18 were added to the culture medium for 24 h. Cell viability was evaluated with the 3-(4,5-dimethylthiazol-2-yl)-2,5-diphenyltetrazolium bromide (MTT; 0.5 mg/mL; Sigma-Aldrich, Milan, Italy) reduction assay, and formazan salt formation upon MTT reduction by the mitochondria of living cells was detected spectrophotometrically at 595 nm according to published procedures.
(§2) Figure 2 Cell viability measured in HeLa and A549 cells treated for 24 h with increasing concentration of compound 6 (panel A, C) and 18 (panel B, D). Bar graphs show cell viability measured using the 3-(4,5-dimethylthiazol-2-yl)-2,5-diphenyltetrazolium bromide (MTT) assay. Data are expressed as optical density (OD) at 595 nm, normalized to control (vehicle). The bar is the standard error of the mean (SEM) on 3 independent determinations. Statistically significant differences were accepted when the p-value was at least ≤0.05.

HeLa cells = experiment: MTT cytotoxicity assay, HeLa cells; type: cell-based, human; conditions: HeLa cells, 1, 5 and 25 μM, 24 h
Description: as §1, §2

rTRPV4 = biological target: T2, rTRPV4 (Rattus norvegicus, UniProt Q9ERZ8); experiment: TRPV4 calcium influx assay (Fluo-4) in HEK-293 cells overexpressing rat recombinant TRPV4; type: cell-based; conditions: for IC50: against the effect of GSK1016790A (10 nM) after a 5-min pre-incubation, read-out: IC50 inh. TRPV4; for Efficacy %: as percent of the effect of ionomycin (4 µM), HEK-293 cells overexpressing rTRPV4, means ± SEM, n >= 3
T2 construct: expressed in transfected cells; host or cells: HEK-293
T2 sequence (Q9ERZ8 whole entry): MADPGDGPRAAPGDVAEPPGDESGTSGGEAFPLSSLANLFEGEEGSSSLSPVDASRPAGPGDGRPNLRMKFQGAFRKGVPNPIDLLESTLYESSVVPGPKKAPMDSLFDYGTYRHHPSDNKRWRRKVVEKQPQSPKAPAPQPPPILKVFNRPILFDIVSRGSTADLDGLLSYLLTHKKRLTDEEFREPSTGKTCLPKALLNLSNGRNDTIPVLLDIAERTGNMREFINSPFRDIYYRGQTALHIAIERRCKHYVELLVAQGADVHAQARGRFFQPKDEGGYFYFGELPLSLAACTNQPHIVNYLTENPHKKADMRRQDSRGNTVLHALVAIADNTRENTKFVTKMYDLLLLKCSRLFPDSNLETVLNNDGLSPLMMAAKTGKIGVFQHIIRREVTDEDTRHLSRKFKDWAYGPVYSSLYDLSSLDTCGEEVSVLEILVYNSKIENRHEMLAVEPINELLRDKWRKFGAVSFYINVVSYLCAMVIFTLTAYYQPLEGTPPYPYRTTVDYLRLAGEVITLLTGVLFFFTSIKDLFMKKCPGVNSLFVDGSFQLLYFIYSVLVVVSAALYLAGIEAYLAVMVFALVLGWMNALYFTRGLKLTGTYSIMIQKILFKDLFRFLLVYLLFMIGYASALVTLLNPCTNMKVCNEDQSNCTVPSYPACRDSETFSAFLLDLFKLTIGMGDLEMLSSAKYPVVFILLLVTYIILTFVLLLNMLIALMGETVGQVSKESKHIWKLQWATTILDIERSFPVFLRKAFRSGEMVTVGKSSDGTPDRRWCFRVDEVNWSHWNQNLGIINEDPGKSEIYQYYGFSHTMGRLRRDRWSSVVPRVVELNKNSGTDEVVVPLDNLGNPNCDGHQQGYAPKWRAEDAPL
Description: The interaction properties of all homodrimane-derived compounds 1–16, 18–19, and 22–25 with either TRPV type-4 or type-1 were studied in human embryonic kidney (HEK)-293 cells overexpressing either the rat recombinant type-4 (rTRPV4), which shares with the human orthologue ~95% of sequence identity, and the human recombinant type-1 (hTRPV1) channel, evaluating the changes in intracellular calcium levels. […] Cell fluorescence before and after the addition of various concentrations of test compounds was measured normalizing the effects against the response to ionomycin (4 μM). […] Dose-response curve fitting (sigmoidal dose-response variable slope) and parameter estimation were performed with Graph-Pad Prism8® (GraphPad Software Inc., San Diego, CA, USA). All determinations were performed at least in triplicate.

TRPV1 = system: TRPV1; parameters: method as in PMID 30507122; conditions: cited from earlier work

Row | IC50 (hTRPV1) | activity on rTRPV4 in words (rTRPV4) | IC50 (rTRPV4) | Efficacy % (rTRPV4) | SMILES | cytotoxic effect (cell viability, MTT) (A549 cells) | cytotoxic effect (cell viability, MTT) (HeLa cells) | also measured
1 |  |  |  |  | C=C1CC[C@@H]2[C@](C)(CO)[C@H](O)CC[C@@]2(C)[C@@H]1/C=C/C1=CC(C(C[C@@H]2C(=C)CC[C@@H]3[C@](C)(CO)[C@H](O)CC[C@]32C)C2=CCOC2=O)OC1=O (stereo partly shown) [bisandrographolide A] |  |  | EC50 (TRPV4; read-out: EC50 (TRPV4 agonist)): 0.79 to 0.95 µM
2 | > 100 µM | potent and selective TRPV4 antagonists | 5.3 ± 0.3 µM | <10% | CC1(C)CCC[C@]2(C)[C@@H](CC(=O)NCc3ccc(Cl)c(Cl)c3)[C@](C)(O)CC[C@@H]12 [Compound 6, N-(3,4-dichlorobenzyl)-2-((1R,2R,4aS,8aS)-2-hydroxy-2,5,5,8a-tetramethyldecahydronaphthalen-1-yl)acetamide] | neither compound caused statistically-significant cytotoxic effects at any tested concentration | neither compound caused statistically-significant cytotoxic effects at any tested concentration | Efficacy % (hTRPV1; as percent of the effect of ionomycin (4 µM), HEK-293 cells overexpressing hTRPV1, means ± SEM, N >= 3): 16.9 ± 0.3%
3 |  | potent and selective TRPV4 antagonists | 5.41 ± 0.07 µM | <10% | CC1(C)CCC[C@]2(C)[C@@H](CC(=O)OCc3ccccc3)[C@](C)(O)CC[C@@H]12 [Compound 18, Benzyl 2-((1R,2R,4aS,8aS)-2-hydroxy-2,5,5,8a-tetramethyldecahydronaphthalen-1-yl)acetate] | neither compound caused statistically-significant cytotoxic effects at any tested concentration | neither compound caused statistically-significant cytotoxic effects at any tested concentration | 
4 | > 100 µM |  | > 100 µM | <10% | CC1(C)CCC[C@]2(C)[C@@H](CCOC(=O)/C=C/c3ccc4c(c3)OCO4)[C@](C)(O)CC[C@@H]12 [Compound 23, 2-((1R,2R,4aS,8aS)-2-hydroxy-2,5,5,8a-tetramethyldecahydronaphthalen-1-yl)ethyl (E)-3-(benzo[d][1,3]dioxol-5-yl)acrylate] |  |  | melting point: 115 to 116 °C
5 |  |  |  |  | C/C=C(\C)[C@H]1C(C)=C[C@H]2C[C@@H](C)C[C@@H](C(=O)O)[C@@H]2[C@@]1(C)C(=O)c1cccnc1 [onydecalin A] |  |  | activity towards TRPV1 in words (TRPV1): partial activity; IC50 (TRPV4; read-out: IC50 (TRPV4 antagonist)): 45.9 µM
